Data reported in patent US10570125B2, “(Cyano-dimethyl-methyl)-isoxazoles and -[1,3,4]thiadiazoles” (Centrexion Therapeutics Corporation, priority 2013, dated 2020).

Experiments:
human CB1R = human CB1R (Homo sapiens (Human), UniProt P21554); assay: CB1 cAMP (assay 2); type: cell-based; conditions: CHO cells expressing human CB1R; inhibition of forskolin-stimulated cAMP
human MDR1 P-gp = human MDR1 P-gp (Homo sapiens (Human), UniProt P08183); assay: MDCK assay: efflux in MDCK-MDR1 cell monolayers (assay 3); type: in vitro ADME; conditions: pH 7.4, 37° C.
Experimental: C. Assessment of Efflux in Madin-Darby Canine Kidney Cells Transfected with the Human MDR1 Gene (MDCK Assay) (Assay 3)
Apparent permeability coefficients (PE) of the compounds across the MDCK-MDR1 cell monolayers are measured (pH 7.4, 37° C.) in apical-to-basal (AB) and basal-to-apical (BA) transport direction. AB permeability (PEAB) represents drug absorption from the blood into the brain and BA permeability (PEBA) drug efflux from the brain back into the blood via both passive permeability as well as active transport mechanisms mediated by efflux and uptake transporters that are expressed on the MDCK-MDR1 cells, predominantly by the overexpressed human MDR1 P-gp. The compounds are assigned to permeability/absorption classes by comparison of the AB permeabilities with the AB permeabilities of reference compounds with known in vitro permeability and oral absorption in the human. Identical or similar permeabilities in both transport directions indicate passive permeation, vectorial permeability points to additional active transport mechanisms. Higher PEBA than PEAB indicates the involvement of active efflux mediated by MDR1 P-gp. Active transport is concentration-dependently saturable. MDCK-MDR1 cells (1-2×10e5 cells/1 cm2 area) are seeded on filter inserts (Costar transwell polycarbonate or PET filters, 0.4 μm pore size) and cultured (DMEM) for 7 days. […]

Sequence of human MDR1 P-gp (P08183 whole entry): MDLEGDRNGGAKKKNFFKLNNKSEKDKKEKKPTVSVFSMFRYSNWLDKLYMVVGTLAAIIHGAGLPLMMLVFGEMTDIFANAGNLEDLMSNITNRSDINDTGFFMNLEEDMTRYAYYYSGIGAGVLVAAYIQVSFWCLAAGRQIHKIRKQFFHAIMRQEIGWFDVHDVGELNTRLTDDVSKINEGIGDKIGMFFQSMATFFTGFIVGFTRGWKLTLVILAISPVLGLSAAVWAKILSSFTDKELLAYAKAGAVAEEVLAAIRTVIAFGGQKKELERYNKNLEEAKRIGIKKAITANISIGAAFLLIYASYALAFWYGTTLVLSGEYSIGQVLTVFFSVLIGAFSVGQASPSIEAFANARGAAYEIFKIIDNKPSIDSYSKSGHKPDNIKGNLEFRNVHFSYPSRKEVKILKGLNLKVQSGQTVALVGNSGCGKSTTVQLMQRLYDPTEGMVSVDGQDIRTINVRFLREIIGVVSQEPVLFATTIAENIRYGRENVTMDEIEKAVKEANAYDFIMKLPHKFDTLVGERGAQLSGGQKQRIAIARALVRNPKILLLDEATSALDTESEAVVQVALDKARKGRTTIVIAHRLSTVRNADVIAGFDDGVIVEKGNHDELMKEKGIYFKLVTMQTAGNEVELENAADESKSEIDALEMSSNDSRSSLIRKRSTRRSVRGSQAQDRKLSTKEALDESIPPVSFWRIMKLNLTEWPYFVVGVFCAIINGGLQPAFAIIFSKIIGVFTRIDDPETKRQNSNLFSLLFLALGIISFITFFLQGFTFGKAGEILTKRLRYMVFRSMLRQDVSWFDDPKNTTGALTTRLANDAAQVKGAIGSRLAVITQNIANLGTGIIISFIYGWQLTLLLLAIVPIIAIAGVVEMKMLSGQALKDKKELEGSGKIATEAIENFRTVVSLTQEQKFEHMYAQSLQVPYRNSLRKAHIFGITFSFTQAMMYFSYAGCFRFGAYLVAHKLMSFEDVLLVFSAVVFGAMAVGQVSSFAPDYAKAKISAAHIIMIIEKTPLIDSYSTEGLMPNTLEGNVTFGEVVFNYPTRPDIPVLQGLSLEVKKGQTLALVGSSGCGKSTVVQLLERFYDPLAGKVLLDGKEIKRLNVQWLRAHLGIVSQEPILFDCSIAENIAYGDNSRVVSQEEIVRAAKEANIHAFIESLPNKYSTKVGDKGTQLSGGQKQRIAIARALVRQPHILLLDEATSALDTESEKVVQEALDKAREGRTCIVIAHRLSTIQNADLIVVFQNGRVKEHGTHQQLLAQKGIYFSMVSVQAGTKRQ
Sequence of human CB1R (P21554 whole entry): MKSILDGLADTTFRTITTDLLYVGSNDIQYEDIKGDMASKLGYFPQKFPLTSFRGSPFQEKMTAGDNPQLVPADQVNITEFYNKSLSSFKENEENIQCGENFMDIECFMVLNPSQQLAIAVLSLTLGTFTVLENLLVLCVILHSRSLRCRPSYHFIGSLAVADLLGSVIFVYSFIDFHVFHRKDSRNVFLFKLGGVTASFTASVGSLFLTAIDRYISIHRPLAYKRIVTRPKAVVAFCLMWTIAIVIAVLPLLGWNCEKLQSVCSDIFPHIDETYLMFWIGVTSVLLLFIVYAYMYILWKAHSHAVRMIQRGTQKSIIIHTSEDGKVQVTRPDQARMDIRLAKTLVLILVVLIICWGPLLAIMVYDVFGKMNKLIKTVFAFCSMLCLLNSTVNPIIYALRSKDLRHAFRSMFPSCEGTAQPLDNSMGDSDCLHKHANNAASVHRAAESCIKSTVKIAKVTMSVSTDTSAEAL

Row | Compound | EC50 (human CB1R) [µM] | efflux ratio (human MDR1 P-gp; dog, read-out: MDCK efflux ratio (BA/AB)) | MDCK efflux ratio (BA/AB) (human MDR1 P-gp)
1 | CC(C)(CO)c1cc(NC(=O)C(C)(C)S(=O)(=O)CCCC(F)(F)F)on1 [Example 7 WO2010036630] | 28 | 6.9 | 
2 | CC(C)(O)c1cc(NC(=O)C(C)(C)S(=O)(=O)CCCC(F)(F)F)on1 [Example 134 in WO2010036630] | 26 |  | 3.2
